Where two headings read alike, the source gives them in different places.
What was measured:
[1] = molecular target: T1, phosphor-EGFR in H1975(L585R/T790M) mutant EGFR expressing cells (Homo sapiens, UniProt P00533, L858R/T790M); test: H1975 pEGFR MSD cellular assay; format: cell-based; details: NCI-H1975 cells, serum starved, 1 hour compound incubation, pEGFR Tyr1068 MSD; read-out: HI975 pEGFR EC50
T1 construct: host or cells: NCI-H1975
Protocol: H1975 pEGFR MSD Cellular Assays
These assays are intended for determining cellular. […] (Meso Scale Discovery Catalog# N31CB-1).
NCI-H1975 (ATCC Catalog# CRL-5908) cells are maintained in medium containing RPMI 1640, 10% FBS, 4 mM L-Glutamine, 1% Penicillin-Streptomycin, and 4.5 g/L Glucose. All cell culture reagents were purchased from Invitrogen/Gibco. Cells are cultured at 37° C. at 5% CO2 and split as recommended by ATCC.
Cell Plating and Serum Starvation:
H1975 cells are harvested and plated into sterile cell culture treated 384 well plates (Greiner catalog #781091) at a density of 30,000 cells/well in 50 ul culture medium and placed in a 37° C. at 5% CO2 incubator for six hours. After six hours, culture medium is aspirated and replaced with serum-free culture medium. Cells are then incubated with the serum-free medium overnight at 37° C. and 5% CO2.
The following day, test compounds are serially diluted in dimethyl sulfoxide (DMSO) and added to cells in serum free medium (final DMSO concentration 0.5%). Assay plates are then incubated for 1 hour at 37° C. and 5% CO2. Following 1 hour of compound incubation cells are then lysed and processed as per the MSD pEGFR assay kit protocol. Cell lysates are added to assay plates pre-coated with antibodies against phosphorylated EGFR. Phosphorylated EGFR in samples are allowed to bind to the capture antibodies overnight at 4° C. The detection antibody (anti-total EGFR, labeled with an electrochemiluminescent SULFO-TAG) is added to the bound lysate and incubated for 1 hour at room temperature. The MSD Read Buffer is added such that when a voltage is applied to the plate electrodes, the labels bound to the electrode surface emit light. The MSD Sector Instrument measures the intensity of the light, and quantitatively measures the amount of phosphorylated-EGFR in the sample. Percent inhibition of EGFR phosphorylation by varying concentrations of test compounds is calculated relative to untreated controls. EC50 values are calculated using the 4 parameter logistic nonlinear regression dose-response model.

[2] = test system: H1975 (EGFR T790M/L858R) cell proliferation; test: H1975 proliferation assay (Cell Titer-Glo); format: cell-based; details: NCI-H1975 cells, 72 hour incubation
Protocol: H1975 Proliferation Assays
All cell culture reagents were purchased from Invitrogen/Gibco. Cells are cultured at 37° C. at 5% CO2 and split as recommended by ATCC.

EGFR T790M L858R = molecular target: T2, EGFR T790M L858R (Homo sapiens, UniProt P00533, L858R/T790M); test: EGFR T790M L858R biochemical assay (Caliper mobility shift); details: 5 μM ATP; apparent Ki (Morrison fit) converted by Cheng-Prusoff, Km of ATP 1.3 μM
T2 construct: purchased Life Technologies PV4879
T2 sequence (P00533 25-1210 T790M/L858R): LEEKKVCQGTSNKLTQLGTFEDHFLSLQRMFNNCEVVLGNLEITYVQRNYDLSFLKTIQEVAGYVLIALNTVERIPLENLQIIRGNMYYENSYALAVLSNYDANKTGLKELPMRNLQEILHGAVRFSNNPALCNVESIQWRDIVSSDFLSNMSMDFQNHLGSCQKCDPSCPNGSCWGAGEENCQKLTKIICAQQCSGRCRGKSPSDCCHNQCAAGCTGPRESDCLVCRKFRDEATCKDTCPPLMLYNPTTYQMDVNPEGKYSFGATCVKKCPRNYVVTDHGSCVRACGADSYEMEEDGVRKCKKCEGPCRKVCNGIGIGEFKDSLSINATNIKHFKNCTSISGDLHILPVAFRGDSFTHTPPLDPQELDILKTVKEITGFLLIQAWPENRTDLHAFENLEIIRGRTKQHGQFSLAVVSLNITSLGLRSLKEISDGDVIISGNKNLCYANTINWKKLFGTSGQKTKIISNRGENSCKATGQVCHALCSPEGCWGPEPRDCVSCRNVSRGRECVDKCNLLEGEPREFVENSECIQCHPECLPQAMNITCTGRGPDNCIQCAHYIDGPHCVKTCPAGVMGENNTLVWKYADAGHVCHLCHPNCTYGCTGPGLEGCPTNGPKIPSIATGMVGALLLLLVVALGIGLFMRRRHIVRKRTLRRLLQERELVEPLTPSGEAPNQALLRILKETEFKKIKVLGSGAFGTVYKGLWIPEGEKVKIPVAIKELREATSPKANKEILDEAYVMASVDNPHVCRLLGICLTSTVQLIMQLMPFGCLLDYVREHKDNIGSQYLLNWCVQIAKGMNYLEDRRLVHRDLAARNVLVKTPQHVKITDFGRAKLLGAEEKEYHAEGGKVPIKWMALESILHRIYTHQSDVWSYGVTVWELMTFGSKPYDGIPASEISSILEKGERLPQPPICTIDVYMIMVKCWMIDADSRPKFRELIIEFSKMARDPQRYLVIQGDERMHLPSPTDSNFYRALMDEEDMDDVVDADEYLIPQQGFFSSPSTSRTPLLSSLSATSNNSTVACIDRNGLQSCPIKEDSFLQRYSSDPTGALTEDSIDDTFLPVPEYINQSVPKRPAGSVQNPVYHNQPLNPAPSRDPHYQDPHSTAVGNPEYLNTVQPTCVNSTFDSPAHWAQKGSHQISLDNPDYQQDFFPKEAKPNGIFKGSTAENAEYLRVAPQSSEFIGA
Protocol: The exemplified compounds described herein were tested according to the assay below. The enzyme data reported in Tables 4-5 is generally a representative of multiple experiments.
Reactions proceed for 30 minutes at room temperature (22° C.) and are terminated with 80 mM 2,2′,2″,2′″-(ethane-1,2-diyldinitrilo)tetraacetic acid (EDTA). Product is detected using the Caliper mobility shift detection method where product and substrate are electrophoretically separated and measured.

[3] = Homo sapiens, NCI-H1975, 72 h, read-out: H1975 antiproliferative EC50

T1 sequence (P00533 25-1210 T790M/L858R): as above

EC50 [1] [µM]	EC50 [2, 3] [µM]	Ki (EGFR T790M L858R) [µM]	EC50 ([2]; listed as 13, enantiomer 2, read-out: H1975 antiproliferative EC50) [µM]	EC50 ([2]; listed as 27, enantiomer 2, read-out: H1975 antiproliferative EC50) [µM]	SMILES
0.0181	0.159	< 0.0006			CC(C)n1nc(N2CC(C(=O)N(C)C)C2)c2cnc(Nc3ccnc(-c4cnn(S(=O)(=O)C5CC5)c4)n3)cc21 [Example 57, 1-(6-(2-(1-(cyclopropylsulfonyl)-1H-pyrazol-4-yl)pyrimidin-4-ylamino)-1-isopropyl-1H-pyrazolo[4,3-c]pyridin-3-yl)-N,N-dimethylazetidine-3-carboxamide]
0.0513	1.45	0.0007			COCCNC(=O)C1CN(c2nn(C(C)C)c3cc(Nc4ccnc(-c5cnn(S(=O)(=O)C6CC6)c5)n4)ncc23)C1 [Example 30, 1-(6-(2-(1-(Cyclopropylsulfonyl)-1H-pyrazol-4-yl)pyrimidin-4-ylamino)-1-isopropyl-1H-pyrazolo[4,3-c]pyridin-3-yl)-N-(2-methoxyethyl)azetidine-3-carboxamide]
			0.633		CCC(C)n1nc(N2CC(C(C)(C)O)C2)c2cnc(Nc3ccnc(-c4cnn(S(=O)(=O)C5CC5)c4)n3)cc21 (single isomer, unassigned) [Example 13, enantiomer 2, 2-(1-(1-(sec-Butyl)-6-((2-(1-(cyclopropylsulfonyl)-1H-pyrazol-4-yl)pyrimidin-4-yl)amino)-1H-pyrazolo[4,3-c]pyridin-3-yl)azetidin-3-yl)propan-2-ol]
0.0638	0.247	0.0008			CC(C)n1nc(N)c2cnc(Nc3ccnc(-c4cnn(S(=O)(=O)C5CC5)c4)n3)cc21 [Example 45, N^6-(2-(1-(cyclopropylsulfonyl)-1H-pyrazol-4-yl)pyrimidin-4-yl)-1-isopropyl-1H-pyrazolo[4,3-c]pyridine-3,6-diamine]
0.474	5.59				CCC(C)n1nc(N2C[C@@H](CO)NC2=O)c2cnc(Nc3ccnc(-c4cnn(S(=O)(=O)C5CC5)c4)n3)cc21 (stereo partly drawn) [Example 189, (4S)-1-(1-sec-Butyl-6-(2-(1-(cyclopropylsulfonyl)-1H-pyrazol-4-yl)pyrimidin-4-ylamino)-1H-pyrazolo[4,3-c]pyridin-3-yl)-4-(hydroxymethyl)imidazolidin-2-one]
0.0856	0.696				CCC(C)n1nc(N2CC[C@H](O)C2=O)c2cnc(Nc3ccnc(-c4cnn(S(=O)(=O)C5CC5)c4)n3)cc21 (stereo partly drawn) [Example 185, (3S)-(1-sec-Butyl-6-(2-(1-(cyclopropylsulfonyl)-1H-pyrazol-4-yl)pyrimidin-4-ylamino)-1H-pyrazolo[4,3-c]pyridin-3-yl)-3-hydroxypyrrolidin-2-one]
	> 10				CC(C)n1nc(N2C[C@H](O)[C@@H](O)C2)c2cnc(Nc3ccnc(N4CCC(C)(O)CC4)n3)cc21 [Example 192, (3S,4S)-1-(6-(2-(4-Hydroxy-4-methylpiperidin-1-yl)pyrimidin-4-ylamino)-1-isopropyl-1H-pyrazolo[4,3-c]pyridin-3-yl)pyrrolidine-3,4-diol]
				1.14	CCC(C)n1nc(N2CCOCC2)c2cnc(Nc3ccnc(-c4cnn(S(=O)(=O)C5CC5)c4)n3)cc21 (single isomer, unassigned) [Example 27, enantiomer 2, 1-(sec-Butyl)-N-(2-(1-(cyclopropylsulfonyl)-1H-pyrazol-4-yl)pyrimidin-4-yl)-3-morpholino-1H-pyrazolo[4,3-c]pyridin-6-amine]
	> 10	0.298			CC(C)n1nc(F)c2cnc(Nc3ccnc(-c4cnn(S(=O)(=O)C5CC5)c4)n3)cc21 [Example 7, N-(2-(1-(Cyclopropylsulfonyl)-1H-pyrazol-4-yl)pyrimidin-4-yl)-3-fluoro-1-isopropyl-1H-pyrazolo[4,3-c]pyridin-6-amine]
	0.61				CCC(C)n1nc(N2CCOCC2)c2cnc(Nc3ccnc(-c4cnn(S(=O)(=O)C5CC5)c4)n3)cc21 (single isomer, unassigned) [Example 27, enantiomer 1, 1-(sec-Butyl)-N-(2-(1-(cyclopropylsulfonyl)-1H-pyrazol-4-yl)pyrimidin-4-yl)-3-morpholino-1H-pyrazolo[4,3-c]pyridin-6-amine]
0.0446	0.537				CCC(C)n1nc(N2CC(C(C)O)C2)c2cnc(Nc3ccnc(-c4cnn(S(=O)(=O)C5CC5)c4)n3)cc21 (stereo not drawn) [Example 190, 1-(1-(1-sec-Butyl-6-(2-(1-(cyclopropylsulfonyl)-1H-pyrazol-4-yl)pyrimidin-4-ylamino)-1H-pyrazolo[4,3-c]pyridin-3-yl)azetidin-3-yl)ethanol]
0.0949	0.761				CCC(C)n1nc(N2CC(N)C(F)(F)C2)c2cnc(Nc3ccnc(N4CCC(C)(O)CC4)n3)cc21 (stereo not drawn) [Example 184, 1-(4-(3-(4-Amino-3,3-difluoropyrrolidin-1-yl)-1-sec-butyl-1H-pyrazolo[4,3-c]pyridin-6-ylamino)pyrimidin-2-yl)-4-methylpiperidin-4-ol]
0.531	> 10				CC(C)n1nc(N2C[C@@H](O)[C@@H](O)C2)c2cnc(Nc3ccnc(N4CCC(C)(O)CC4)n3)cc21 [Example 191, (±)-1-(6-(2-(4-Hydroxy-4-methylpiperidin-1-yl)pyrimidin-4-ylamino)-1-isopropyl-1H-pyrazolo[4,3-c]pyridin-3-yl)pyrrolidine-cis-3,4-diol]
0.0643	1.09				CCC(C)n1nc(N2CCN(C(=O)[C@@H](C)O)CC2)c2cnc(Nc3ccnc(-c4cnn(S(=O)(=O)C5CC5)c4)n3)cc21 (stereo partly drawn) [Example 188, (2R)-1-(4-(1-sec-Butyl-6-(2-(1-(cyclopropylsulfonyl)-1H-pyrazol-4-yl)pyrimidin-4-ylamino)-1H-pyrazolo[4,3-c]pyridin-3-yl)piperazin-1-yl)-2-hydroxypropan-1-one]
0.0749	0.586				CCC(C)n1nc(N2CC[C@@H](O)C2=O)c2cnc(Nc3ccnc(-c4cnn(S(=O)(=O)C5CC5)c4)n3)cc21 (stereo partly drawn) [Example 186, (3R)-1-(1-sec-Butyl-6-(2-(1-(cyclopropylsulfonyl)-1H-pyrazol-4-yl)pyrimidin-4-ylamino)-1H-pyrazolo[4,3-c]pyridin-3-yl)-3-hydroxypyrrolidin-2-one]
		0.0291			COC1CCN(c2nccc(Nc3cc4c(cn3)c(C(N)=O)nn4C(C)C)n2)CC1 [Example 11, 1-Isopropyl-6-((2-(4-methoxypiperidin-1-yl)pyrimidin-4-yl)amino)-1H-pyrazolo[4,3-c]pyridine-3-carboxamide]
0.0755	0.813				CCC(C)n1nc(N2CCN(C(=O)[C@H](C)O)CC2)c2cnc(Nc3ccnc(-c4cnn(S(=O)(=O)C5CC5)c4)n3)cc21 (stereo partly drawn) [Example 187, (2S)-1-(4-(1-sec-Butyl-6-(2-(1-(cyclopropylsulfonyl)-1H-pyrazol-4-yl)pyrimidin-4-ylamino)-1H-pyrazolo[4,3-c]pyridin-3-yl)piperazin-1-yl)-2-hydroxypropan-1-one]
	0.361				CCC(C)n1nc(N2CC(C(C)(C)O)C2)c2cnc(Nc3ccnc(-c4cnn(S(=O)(=O)C5CC5)c4)n3)cc21 (single isomer, unassigned) [Example 13, enantiomer 1, 2-(1-(1-(sec-Butyl)-6-((2-(1-(cyclopropylsulfonyl)-1H-pyrazol-4-yl)pyrimidin-4-yl)amino)-1H-pyrazolo[4,3-c]pyridin-3-yl)azetidin-3-yl)propan-2-ol]

— patent publication US9951064B2, “Azaindazole compounds as inhibitors of T790M containing EGFR mutants” (Genentech, Inc., priority 2013, dated 2018)
